Test results taken from patent publication US20240368135A1 (VERTEX PHARMACEUTICALS INCORPORATED, priority 2021, published 2024).

Biological target: human NaV 1.8 (Homo sapiens, UniProt Q9Y5Y9)
Assay: E-VIPR assay detecting and measuring NaV inhibition properties
Assay type: cell-based
Settings: HEK cells expressing truncated human NaV 1.8; no human serum; read-out: IC50 in the E-VIPR Assay
How it was run: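 Membrane potential was followed by coumarin/oxonol FRET during electrical field stimulation of matrigel-seeded HEK cells carrying truncated human NaV1.8 plus KIR2.1. Dosing used 11 points, 3-fold steps, top 300 nM final, 0.625% DMSO, with or without 25% human serum.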

human NaV 1.8, sequence (Q9Y5Y9 126-399 limits assumed): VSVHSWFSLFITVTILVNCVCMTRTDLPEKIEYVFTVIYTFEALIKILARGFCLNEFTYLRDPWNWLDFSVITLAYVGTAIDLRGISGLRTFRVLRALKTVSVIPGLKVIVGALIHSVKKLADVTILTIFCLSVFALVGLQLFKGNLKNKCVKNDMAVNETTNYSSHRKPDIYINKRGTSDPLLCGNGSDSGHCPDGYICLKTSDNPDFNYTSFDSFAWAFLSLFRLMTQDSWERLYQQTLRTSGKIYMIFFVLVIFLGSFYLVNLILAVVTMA
human NaV 1.8, sequence (Q9Y5Y9 660-890 limits assumed): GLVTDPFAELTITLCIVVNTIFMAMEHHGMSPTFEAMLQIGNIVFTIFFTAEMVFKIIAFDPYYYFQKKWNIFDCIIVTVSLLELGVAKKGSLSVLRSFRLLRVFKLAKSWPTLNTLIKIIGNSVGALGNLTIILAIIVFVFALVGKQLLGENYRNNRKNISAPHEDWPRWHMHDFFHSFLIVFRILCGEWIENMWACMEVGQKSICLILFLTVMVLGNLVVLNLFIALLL
human NaV 1.8, sequence (Q9Y5Y9 1148-1722 limits assumed): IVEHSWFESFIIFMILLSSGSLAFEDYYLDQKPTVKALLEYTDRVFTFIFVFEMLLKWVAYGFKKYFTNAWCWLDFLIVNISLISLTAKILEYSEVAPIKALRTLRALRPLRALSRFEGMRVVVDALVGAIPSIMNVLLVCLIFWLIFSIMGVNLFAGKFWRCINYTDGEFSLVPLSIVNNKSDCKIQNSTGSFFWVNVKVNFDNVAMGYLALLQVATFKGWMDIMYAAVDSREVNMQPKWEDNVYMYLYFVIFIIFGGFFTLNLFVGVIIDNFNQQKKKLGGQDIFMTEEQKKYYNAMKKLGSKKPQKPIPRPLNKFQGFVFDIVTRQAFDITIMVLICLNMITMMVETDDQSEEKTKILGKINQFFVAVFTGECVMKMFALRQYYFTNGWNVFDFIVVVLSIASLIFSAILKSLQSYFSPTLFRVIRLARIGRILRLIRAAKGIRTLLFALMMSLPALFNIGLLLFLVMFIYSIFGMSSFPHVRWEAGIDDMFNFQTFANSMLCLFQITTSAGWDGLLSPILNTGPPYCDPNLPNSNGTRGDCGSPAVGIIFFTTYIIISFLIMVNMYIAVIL

IC50 | SMILES
0.01 to 0.1 µM | C[C@H]1[C@@H](c2ccc(F)c(F)c2O)[C@H](C(=O)Nc2ccnc(CO)c2)O[C@@]1(C)C(F)(F)F [Compound 638, (2R,3S,4S,5R)-3-(3,4-difluoro-2-hydroxyphenyl)-N-(2-(hydroxymethyl)pyridin-4-yl)-4,5-dimethyl-5-(trifluoromethyl)tetrahydrofuran-2-carboxamide]
< 0.01 µM | COCCOc1c([C@H]2[C@H](C(=O)Nc3ccnc(CO)c3)O[C@@](C)(C(F)(F)F)[C@H]2C)ccc(F)c1F [Compound 639, (2R,3S,4S,5R)-3-(3,4-difluoro-2-(2-methoxyethoxy)phenyl)-N-(2-(hydroxymethyl)pyridin-4-yl)-4,5-dimethyl-5-(trifluoromethyl)tetrahydrofuran-2-carboxamide]
0.01 to 0.1 µM | C[C@H]1[C@@H](c2ccc(F)c(F)c2OCCN=S(C)(C)=O)[C@H](C(=O)Nc2ccnc(CO)c2)O[C@@]1(C)C(F)(F)F [Compound 640, (2R,3S,4S,5R)-3-(2-(2-((dimethyl(oxo)-λ^6-sulfaneylidene)amino)ethoxy)-3,4-difluorophenyl)-N-(2-(hydroxymethyl)pyridin-4-yl)-4,5-dimethyl-5-(trifluoromethyl)tetrahydrofuran-2-carboxamide]
< 0.01 µM | C[C@H]1[C@@H](c2ccc(F)c(F)c2OCCOC(F)F)[C@H](C(=O)Nc2ccnc(CO)c2)O[C@@]1(C)C(F)(F)F [Compound 641, (2R,3S,4S,5R)-3-(2-(2-(difluoromethoxy)ethoxy)-3,4-difluorophenyl)-N-(2-(hydroxymethyl)pyridin-4-yl)-4,5-dimethyl-5-(trifluoromethyl)tetrahydrofuran-2-carboxamide]
< 0.01 µM | COCCCOc1c([C@H]2[C@H](C(=O)Nc3ccnc(CO)c3)O[C@@](C)(C(F)(F)F)[C@H]2C)ccc(F)c1F [Compound 642, (2R,3S,4S,5R)-3-(3,4-difluoro-2-(3-methoxypropoxy)phenyl)-N-(2-(hydroxymethyl)pyridin-4-yl)-4,5-dimethyl-5-(trifluoromethyl)tetrahydrofuran-2-carboxamide]
< 0.01 µM | C[C@H]1[C@@H](c2ccc(F)c(F)c2OCC(C)(F)F)[C@H](C(=O)Nc2ccnc(CO)c2)O[C@@]1(C)C(F)(F)F [Compound 643, (2R,3S,4S,5R)-3-(2-(2,2-difluoropropoxy)-3,4-difluorophenyl)-N-(2-(hydroxymethyl)pyridin-4-yl)-4,5-dimethyl-5-(trifluoromethyl)tetrahydrofuran-2-carboxamide]
0.01 to 0.1 µM | C[C@H]1[C@@H](c2ccc(F)c(F)c2OCC2CC(F)(F)C2)[C@H](C(=O)Nc2ccnc(CO)c2)O[C@@]1(C)C(F)(F)F [Compound 644, (2R,3S,4S,5R)-3-(2-((3,3-difluorocyclobutyl)methoxy)-3,4-difluorophenyl)-N-(2-(hydroxymethyl)pyridin-4-yl)-4,5-dimethyl-5-(trifluoromethyl)tetrahydrofuran-2-carboxamide]
0.01 to 0.1 µM | C[C@H]1[C@@H](c2ccc(F)c(F)c2OCC2(F)COC2)[C@H](C(=O)Nc2ccnc(CO)c2)O[C@@]1(C)C(F)(F)F [Compound 645, (2R,3S,4S,5R)-3-(3,4-difluoro-2-((3-fluorooxetan-3-yl)methoxy)phenyl)-N-(2-(hydroxymethyl)pyridin-4-yl)-4,5-dimethyl-5-(trifluoromethyl)tetrahydrofuran-2-carboxamide]
< 0.01 µM | COC[C@@H](C)Oc1c([C@H]2[C@H](C(=O)Nc3ccnc(CO)c3)O[C@@](C)(C(F)(F)F)[C@H]2C)ccc(F)c1F [Compound 646, (2R,3S,4S,5R)-3-(3,4-difluoro-2-(((R)-1-methoxypropan-2-yl)oxy)phenyl)-N-(2-(hydroxymethyl)pyridin-4-yl)-4,5-dimethyl-5-(trifluoromethyl)tetrahydrofuran-2-carboxamide]
< 0.01 µM | COCCOc1c([C@H]2[C@H](C(=O)Nc3ccnc(C(O)CO)c3)O[C@@](C)(C(F)(F)F)[C@H]2C)ccc(F)c1F (stereo partly drawn) [Compound 647, (2R,3S,4S,5R)-3-[3,4-difluoro-2-(2-methoxyethoxy)phenyl]-N-[2-(1,2-dihydroxyethyl)-4-pyridyl]-4,5-dimethyl-5-(trifluoromethyl)tetrahydrofuran-2-carboxamide]
< 0.01 µM | COCCOc1c([C@H]2[C@H](C(=O)Nc3ccnc(CCO)c3)O[C@@](C)(C(F)(F)F)[C@H]2C)ccc(F)c1F [Compound 648, (2R,3S,4S,5R)-3-[3,4-difluoro-2-(2-methoxyethoxy)phenyl]-N-[2-(2-hydroxyethyl)-4-pyridyl]-4,5-dimethyl-5-(trifluoromethyl)tetrahydrofuran-2-carboxamide]
0.1 to 1 µM | C[C@H]1[C@@H](c2ccc(F)c(F)c2O)[C@H](C(=O)Nc2ccc(C(N)=O)nc2)O[C@@]1(C)C(F)(F)F [Compound 649, 5-[[(2R,3S,4S,5R)-3-(3,4-difluoro-2-hydroxy-phenyl)-4,5-dimethyl-5-(trifluoromethyl)tetrahydrofuran-2-carbonyl]amino]pyridine-2-carboxamide]
0.01 to 0.1 µM | Cc1cn(C)c(COc2c([C@H]3[C@H](C(=O)Nc4cccnc4)O[C@@](C)(C(F)(F)F)[C@H]3C)ccc(F)c2F)n1 [Compound 650, (2R,3S,4S,5R)-3-(2-((1,4-dimethyl-1H-imidazol-2-yl)methoxy)-3,4-difluorophenyl)-4,5-dimethyl-N-(pyridin-3-yl)-5-(trifluoromethyl)tetrahydrofuran-2-carboxamide]
< 0.01 µM | Cc1cnc(COc2c([C@H]3[C@H](C(=O)Nc4cccnc4)O[C@@](C)(C(F)(F)F)[C@H]3C)ccc(F)c2F)n1C [Compound 651, (2R,3S,4S,5R)-3-(2-((1,5-dimethyl-1H-imidazol-2-yl)methoxy)-3,4-difluorophenyl)-4,5-dimethyl-N-(pyridin-3-yl)-5-(trifluoromethyl)tetrahydrofuran-2-carboxamide]
< 0.01 µM | COCCOc1c([C@H]2[C@H](C(=O)Nc3ccnc(N4C(=O)CN(C)C[C@H]4C)c3)O[C@@](C)(C(F)(F)F)[C@H]2C)ccc(F)c1F [Compound 652, (2R,3S,4S,5R)-3-[3,4-difluoro-2-(2-methoxyethoxy)phenyl]-N-[2-[(2R)-2,4-dimethyl-6-oxo-piperazin-1-yl]-4-pyridyl]-4,5-dimethyl-5-(trifluoromethyl)tetrahydrofuran-2-carboxamide]
0.01 to 0.1 µM | C[C@@H]1CN(C)CC(=O)N1c1cc(NC(=O)[C@@H]2O[C@@](C)(C(F)(F)F)[C@@H](C)[C@H]2c2ccc(F)c(F)c2OCCO)ccn1 [Compound 653, (2R,3S,4S,5R)-3-(3,4-difluoro-2-(2-hydroxyethoxy)phenyl)-N-(2-((R)-2,4-dimethyl-6-oxopiperazin-1-yl)pyridin-4-yl)-4,5-dimethyl-5-(trifluoromethyl)tetrahydrofuran-2-carboxamide]

SMILES | IC50
C[C@H]1[C@@H](c2ccc(F)c(F)c2OC2CC(O)C2)[C@H](C(=O)Nc2cccnc2)O[C@@]1(C)C(F)(F)F (stereo partly drawn) [Compound 654, (2R,3S,4S,5R)-3-(3,4-difluoro-2-((1S,3R)-3-hydroxycyclobutoxy)phenyl)-4,5-dimethyl-N-(pyridin-3-yl)-5-(trifluoromethyl)tetrahydrofuran-2-carboxamide] | < 0.01 µM
C[C@H]1[C@@H](c2ccc(F)c(F)c2O[C@H]2C[C@@H](O)C2)[C@H](C(=O)Nc2ccc(C(N)=O)nc2)O[C@@]1(C)C(F)(F)F [Compound 655, 5-((2R,3S,4S,5R)-3-(3,4-difluoro-2-((1S,3R)-3-hydroxycyclobutoxy)phenyl)-4,5-dimethyl-5-(trifluoromethyl)tetrahydrofuran-2-carboxamido)picolinamide] | 0.01 to 0.1 µM
